Data on 1 compound can be found in patent publication US5164507A, “Antibiotic pyridine compound” (Meiji Seika Kaisha Ltd., priority 1990, dated 1992).

Series [1] deals with Candida albicans M9001. Put plainly: MIC (minimum growth inhibitory concentration) on test microorganisms. In kind it is cell-based. An excerpt: (§1) Minimum growth inhibitory concentrations (MIC) of a hydrochloride of substance SF 2698 on various test microorganisms are shown in Table 1 below.
Series [2] deals with Candida glabrata IFO-0005. The series is described as above. The note with it: Nakaseomyces glabratus, IFO0005. The class given is cell-based.
From the text: as §1

The subject of series [3] is Candida glabrata IFO-0622. The series is described as above. The class given is cell-based. The note with it: Nakaseomyces glabratus, IFO0622.
From the text: as §1

Series [4] deals with Candida utilis M9007. The series is described as above. In kind it is cell-based. The note with it: Williopsis jadinii.
From the text: as §1

The subject of series [5] is Cryptococcus neoformans M9010. The series is described as above. In kind it is cell-based.
From the text: as §1

Series [6] concerns mice. Put plainly: toxicity by intravenous injection to mice. The note with it: dose of 100 mg/kg. In kind it is in vivo. From the text: Further, toxicity of a hydrochloride of substance SF2698 was examined by administering to mice the test compound by intravenous injection.
Series [7] can be described thus: Solubility. The class given is physicochemical.
The subject of series [8] is eumycetes. As to the kind of experiment: antimicrobial activity (Table 1, summary). The note with it: against certain kinds of eumycetes, from Table 1. In kind it is cell-based.
From the text: as §1

Molecules are shown by their SMILES. Counter-ions that a name gives are not always drawn.

One may read the MIC as the smallest concentration in the dilution series that meets the test's criterion for growth inhibition.

Regarding `N=C1C=CCC(C(=O)O)N1` (stereo not shown) [hydrochloride of substance SF 2698], the MIC in series [1] was > 100 µg/mL; in series [2] it was 0.2 µg/mL; in series [3] it was 0.78 µg/mL; in series [4], 12.5 µg/mL; in series [5] it was > 100 µg/mL. In addition, the case of death entry in series [6] is “no case of death”. Also, the Solubility result in series [7] (in methanol) is “soluble”; in series [7] (in organic solvents, e.g., ethyl acetate) it was “insoluble”; in series [7] (in water) it was “soluble”. Further, the antimicrobial activity result in series [8] is given as “exhibits antimicrobial activity against certain kinds of eumycetes”.
